Data as given in ChEMBL document CHEMBL1201862, “PubChem BioAssay data set” (2004).
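Exposure lasted 48 hours, with cells grown in 96-well plates and compounds tested at five concentrations. Here, GI50 denotes the concentration required for 50% inhibition of growth.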 Active and inactive are the calls of the source. No stated cut-off is given here; in the data, active = GI50 up to about 1.1 µM and inactive = higher.

Assays:
Experiment in all cases: NCI tumour cell line growth inhibition, 48 h
K562 = test system: K562
OVCAR-3 = test system: OVCAR-3
TK-10 = test system: TK-10
NCI-H23 = test system: NCI-H23
SR = test system: SR
CCRF-CEM = test system: CCRF-CEM
A549 = test system: A549
U-251 = test system: U-251
SNB-75 = test system: SNB-75
NCI-H460 = test system: NCI-H460
HOP-62 = test system: HOP-62
MDA-MB-435 = test system: MDA-MB-435
T47D = test system: T47D
HL-60 = test system: HL-60
UACC-257 = test system: UACC-257
NCI/ADR-RES = test system: NCI/ADR-RES
Hs-578T = test system: Hs-578T
EKVX = test system: EKVX
SN12C = test system: SN12C

Measured: GI50

O=C(CC(Cl)=C(Cl)Cl)c1ccccc1
inactive: K562 21.5 µM | OVCAR-3 27 µM | TK-10 > 100 µM | NCI-H23 81.1 µM | SR 21.4 µM | CCRF-CEM 13.7 µM | A549 > 100 µM | U-251 57.1 µM | SNB-75 > 100 µM | NCI-H460 > 100 µM | HOP-62 > 100 µM | MDA-MB-435 36.3 µM | T47D 34.7 µM | HL-60 55.8 µM | UACC-257 27.4 µM | NCI/ADR-RES 74.8 µM | Hs-578T > 100 µM

NC(=O)NCCCC(NC(=O)OCCCCCCn1ccc(=O)[nH]c1=O)C(=O)O (centres undefined)
inactive: K562 > 100 µM | EKVX > 100 µM | OVCAR-3 > 100 µM | TK-10 > 100 µM | NCI-H23 > 100 µM | SR 9.42 µM | CCRF-CEM > 100 µM | A549 > 100 µM | SN12C 50.2 µM | U-251 > 100 µM | SNB-75 > 100 µM | NCI-H460 > 100 µM | HOP-62 > 100 µM | MDA-MB-435 > 100 µM | T47D > 100 µM | HL-60 > 100 µM | UACC-257 > 100 µM | NCI/ADR-RES > 100 µM | Hs-578T > 100 µM

C=C1CCC2CC1[C@@H](C(=O)c1c[nH]c3ccccc13)NC2(C)C (some centres undefined)
inactive: K562 21.9 µM | EKVX > 37.5 µM | OVCAR-3 > 37.5 µM | TK-10 > 37.5 µM | NCI-H23 > 37.5 µM | SR 33 µM | CCRF-CEM > 37.5 µM | A549 > 37.5 µM | SN12C > 37.5 µM | U-251 > 37.5 µM | SNB-75 > 37.5 µM | NCI-H460 > 37.5 µM | HOP-62 > 37.5 µM | MDA-MB-435 > 37.5 µM | T47D 30.6 µM | HL-60 34.8 µM | UACC-257 > 37.5 µM | NCI/ADR-RES > 37.5 µM | Hs-578T > 37.5 µM

CCC(CC)(CO)CNc1cc(Cl)nc(N)n1
inactive: K562 > 100 µM | EKVX 79.3 µM | OVCAR-3 > 100 µM | TK-10 > 100 µM | NCI-H23 > 100 µM | SR > 100 µM | CCRF-CEM > 100 µM | A549 > 100 µM | SN12C > 100 µM | U-251 > 100 µM | SNB-75 > 100 µM | NCI-H460 > 100 µM | HOP-62 > 100 µM | MDA-MB-435 > 100 µM | T47D 45.6 µM | HL-60 > 100 µM | UACC-257 > 100 µM | NCI/ADR-RES > 100 µM | Hs-578T > 100 µM

CC1C[C@]2(C)C(=S)Nc3ccccc3[C@@H]2Nc2ccccc21 (some centres undefined)
inactive: K562 26.6 µM | EKVX 22.3 µM | OVCAR-3 15.1 µM | TK-10 19 µM | NCI-H23 15.2 µM | SR > 100 µM | CCRF-CEM 17.9 µM | A549 19.1 µM | SN12C 17.9 µM | SNB-75 13.9 µM | NCI-H460 13.2 µM | HOP-62 17.7 µM | MDA-MB-435 14.9 µM | T47D 17.9 µM | HL-60 33.5 µM | UACC-257 15.6 µM | NCI/ADR-RES 18.5 µM | Hs-578T 35.2 µM

N=C(/C=C/c1ccc(-c2cn3cc(/C=C/C(=N)N4CCCC4)ccc3n2)cc1)N1CCCC1
inactive: K562 > 100 µM | EKVX > 100 µM | OVCAR-3 60.1 µM | TK-10 > 100 µM | NCI-H23 > 100 µM | SR > 100 µM | A549 61.9 µM | SN12C > 100 µM | U-251 50.2 µM | SNB-75 > 100 µM | NCI-H460 81.3 µM | HOP-62 > 100 µM | MDA-MB-435 > 100 µM | T47D > 100 µM | HL-60 > 100 µM | UACC-257 78.7 µM | NCI/ADR-RES > 100 µM | Hs-578T 56.5 µM

Nc1ccccc1.O=P(O)(O)c1ccccc1
inactive: K562 > 100 µM | EKVX > 100 µM | OVCAR-3 > 100 µM | TK-10 > 100 µM | NCI-H23 > 100 µM | SR > 100 µM | CCRF-CEM > 100 µM | A549 > 100 µM | SN12C > 100 µM | U-251 > 100 µM | SNB-75 17.6 µM | NCI-H460 > 100 µM | HOP-62 > 100 µM | MDA-MB-435 > 100 µM | T47D > 100 µM | HL-60 > 100 µM | UACC-257 > 100 µM | NCI/ADR-RES > 100 µM | Hs-578T > 100 µM

COc1cc(CNC(=O)CCCCCCCCCCSC#N)ccc1O
inactive: K562 6.9 µM | EKVX 21.4 µM | OVCAR-3 13.1 µM | TK-10 20.5 µM | NCI-H23 20.6 µM | SR 8.47 µM | CCRF-CEM 8.13 µM | A549 19.1 µM | U-251 16.8 µM | SNB-75 11 µM | NCI-H460 13.3 µM | MDA-MB-435 5.52 µM | T47D 8.26 µM | HL-60 5.69 µM | UACC-257 21 µM | NCI/ADR-RES 17.1 µM | Hs-578T 14.2 µM

O=C1/C(=C/c2ccc(Br)s2)NC(=S)N1CN1CCCCC1
inactive: K562 23.1 µM | EKVX 9.35 µM | OVCAR-3 22.4 µM | TK-10 34.5 µM | NCI-H23 32.4 µM | SR 15.8 µM | SN12C 34.8 µM | U-251 28.8 µM | SNB-75 44.6 µM | NCI-H460 36.1 µM | HOP-62 75 µM | MDA-MB-435 30 µM | T47D 30.5 µM | HL-60 15.4 µM | UACC-257 33.3 µM | NCI/ADR-RES 28.8 µM | Hs-578T 51.4 µM

Cc1ccc(/C=C2\N=C(N3CCCC(CO)C3)NC2=O)cc1 (centres undefined)
inactive: K562 > 100 µM | EKVX > 100 µM | OVCAR-3 > 100 µM | TK-10 > 100 µM | NCI-H23 > 100 µM | SR > 100 µM | CCRF-CEM > 100 µM | A549 > 100 µM | SN12C > 100 µM | U-251 > 100 µM | SNB-75 > 100 µM | HOP-62 > 100 µM | MDA-MB-435 > 100 µM | T47D > 100 µM | HL-60 > 100 µM | UACC-257 > 100 µM | NCI/ADR-RES > 100 µM | Hs-578T > 100 µM

Nc1nc(NCC2(CO)CCC2)cc(=O)[nH]1
inactive: K562 > 100 µM | EKVX > 100 µM | OVCAR-3 > 100 µM | NCI-H23 > 100 µM | SR > 100 µM | CCRF-CEM > 100 µM | A549 > 100 µM | SN12C > 100 µM | U-251 > 100 µM | SNB-75 > 100 µM | NCI-H460 > 100 µM | HOP-62 > 100 µM | MDA-MB-435 > 100 µM | T47D > 100 µM | HL-60 > 100 µM | UACC-257 > 100 µM | NCI/ADR-RES > 100 µM | Hs-578T > 100 µM
